Earlier results, collected in patent US20090239783A1, “SYNERGISTIC EFFECTS OF COMBINED ADMINISTRATION OF MIRTAZAPINE AND A STIMULANT COMPOUND” (priority 2004, published 2009).

Key:
[1] = target: histamine (H1) (Homo sapiens, UniProt P35367)
[2] = test system: muscarinic
[3] = test system: 5-HT1 receptors

Chain of histamine (H1) (P35367 whole entry): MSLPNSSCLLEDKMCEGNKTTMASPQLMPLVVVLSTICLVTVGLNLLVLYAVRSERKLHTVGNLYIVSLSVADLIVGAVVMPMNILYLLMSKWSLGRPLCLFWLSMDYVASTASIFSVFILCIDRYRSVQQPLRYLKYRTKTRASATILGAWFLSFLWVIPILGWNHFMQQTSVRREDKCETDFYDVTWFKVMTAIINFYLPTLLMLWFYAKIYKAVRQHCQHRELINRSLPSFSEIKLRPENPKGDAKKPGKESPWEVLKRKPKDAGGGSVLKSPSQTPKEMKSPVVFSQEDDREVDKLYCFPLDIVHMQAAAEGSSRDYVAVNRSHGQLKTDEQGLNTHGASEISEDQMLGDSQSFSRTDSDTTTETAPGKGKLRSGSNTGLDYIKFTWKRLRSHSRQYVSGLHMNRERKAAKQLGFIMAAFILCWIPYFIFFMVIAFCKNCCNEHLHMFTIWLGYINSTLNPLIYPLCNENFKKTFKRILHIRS

In the case of CN1CCN2c3ncccc3Cc3ccccc3C2C1 (stereo not shown) [Mirtazapine, 1,2,3,4,10,14b-hexahydro-2-methylpyrazino [2,1-a] pyrido [2,3-c] benzazepine], the solubility in water is listed as “slightly soluble”, the “histamine (H1) antagonist properties” value [1] is listed as “very weak” and the muscarinic anticholinergic properties [2] is listed as “very weak”. For the same compound, the “affinity for 5-HT1 receptors” value [3] was “weak”.
